Laboratory results reported in ChEMBL document CHEMBL4130413, “1-Aryl-1H- and 2-aryl-2H-1,2,3-triazole derivatives blockade P2X7 receptor in vitro and inflammatory response in vivo” (Eur J Med Chem, 2017).
Calls of active or inactive are those of the source. The rule behind the calls is not given here.

How the values were obtained:
[1] = biological target: T1, UDP-glucuronosyltransferase 1A10 (Homo sapiens, UniProt Q9HAW8); assay: Drug metabolism assessed as UGT1A10 (unknown origin)-mediated metabolite formation; assay type: ADME
T1 sequence (Q9HAW8 whole entry): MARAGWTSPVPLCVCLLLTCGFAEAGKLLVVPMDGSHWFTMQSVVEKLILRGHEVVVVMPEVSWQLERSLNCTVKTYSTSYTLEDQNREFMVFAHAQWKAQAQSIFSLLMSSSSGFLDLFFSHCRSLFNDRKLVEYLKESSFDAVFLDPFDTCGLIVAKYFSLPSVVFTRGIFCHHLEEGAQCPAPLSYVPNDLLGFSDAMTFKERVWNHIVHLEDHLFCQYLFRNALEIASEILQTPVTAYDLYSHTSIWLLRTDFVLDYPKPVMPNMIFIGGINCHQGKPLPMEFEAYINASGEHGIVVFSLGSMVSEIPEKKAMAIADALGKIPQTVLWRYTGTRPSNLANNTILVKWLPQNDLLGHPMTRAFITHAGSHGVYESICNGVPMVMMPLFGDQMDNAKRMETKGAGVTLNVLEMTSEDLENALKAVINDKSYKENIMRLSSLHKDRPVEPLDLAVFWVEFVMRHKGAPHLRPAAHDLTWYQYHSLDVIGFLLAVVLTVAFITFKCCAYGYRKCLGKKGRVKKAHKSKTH

[2] = biological target: T2, UDP-glucuronosyltransferase 1A3 (Homo sapiens, UniProt P35503); assay: Drug metabolism assessed as UGT1A3 (unknown origin)-mediated metabolite formation; assay type: ADME
T2 sequence (P35503 whole entry): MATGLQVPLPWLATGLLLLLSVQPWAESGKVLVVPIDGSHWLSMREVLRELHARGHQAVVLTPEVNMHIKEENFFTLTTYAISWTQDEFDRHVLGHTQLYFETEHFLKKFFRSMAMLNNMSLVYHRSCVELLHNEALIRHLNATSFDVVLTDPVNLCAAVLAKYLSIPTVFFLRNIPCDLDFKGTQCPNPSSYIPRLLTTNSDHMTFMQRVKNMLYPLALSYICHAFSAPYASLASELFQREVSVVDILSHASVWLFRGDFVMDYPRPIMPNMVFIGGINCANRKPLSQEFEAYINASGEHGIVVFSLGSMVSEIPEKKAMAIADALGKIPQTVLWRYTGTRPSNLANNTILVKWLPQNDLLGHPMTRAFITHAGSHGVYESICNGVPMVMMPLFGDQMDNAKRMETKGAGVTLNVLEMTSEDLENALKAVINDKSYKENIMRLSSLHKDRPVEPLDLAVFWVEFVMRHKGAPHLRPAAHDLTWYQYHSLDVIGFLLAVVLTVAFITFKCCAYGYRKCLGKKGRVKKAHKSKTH

[3] = biological target: T3, UDP-glucuronosyltransferase 1A4 (Homo sapiens, UniProt P22310); assay: Drug metabolism assessed as UGT1A4 (unknown origin)-mediated metabolite formation; assay type: ADME
T3 sequence (P22310 whole entry): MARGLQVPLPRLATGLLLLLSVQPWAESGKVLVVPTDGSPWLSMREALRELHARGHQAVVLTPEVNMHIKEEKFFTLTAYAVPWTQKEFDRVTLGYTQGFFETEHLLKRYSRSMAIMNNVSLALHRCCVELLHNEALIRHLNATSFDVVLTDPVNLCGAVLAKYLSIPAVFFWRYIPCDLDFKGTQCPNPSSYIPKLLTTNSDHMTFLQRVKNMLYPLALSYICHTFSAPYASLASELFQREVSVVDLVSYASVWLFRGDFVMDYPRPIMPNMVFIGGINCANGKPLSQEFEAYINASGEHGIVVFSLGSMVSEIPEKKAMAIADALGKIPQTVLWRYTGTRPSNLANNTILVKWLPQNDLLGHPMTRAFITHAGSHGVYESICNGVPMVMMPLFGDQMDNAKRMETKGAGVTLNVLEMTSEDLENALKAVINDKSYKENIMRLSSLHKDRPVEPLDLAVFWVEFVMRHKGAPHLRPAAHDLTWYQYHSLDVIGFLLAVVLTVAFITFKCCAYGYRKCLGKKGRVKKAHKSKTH

[4] = biological target: T4, UDP-glucuronosyltransferase 1A8 (Homo sapiens, UniProt Q9HAW9); assay: Drug metabolism assessed as UGT1A8 (unknown origin)-mediated metabolite formation; assay type: ADME
T4 sequence (Q9HAW9 whole entry): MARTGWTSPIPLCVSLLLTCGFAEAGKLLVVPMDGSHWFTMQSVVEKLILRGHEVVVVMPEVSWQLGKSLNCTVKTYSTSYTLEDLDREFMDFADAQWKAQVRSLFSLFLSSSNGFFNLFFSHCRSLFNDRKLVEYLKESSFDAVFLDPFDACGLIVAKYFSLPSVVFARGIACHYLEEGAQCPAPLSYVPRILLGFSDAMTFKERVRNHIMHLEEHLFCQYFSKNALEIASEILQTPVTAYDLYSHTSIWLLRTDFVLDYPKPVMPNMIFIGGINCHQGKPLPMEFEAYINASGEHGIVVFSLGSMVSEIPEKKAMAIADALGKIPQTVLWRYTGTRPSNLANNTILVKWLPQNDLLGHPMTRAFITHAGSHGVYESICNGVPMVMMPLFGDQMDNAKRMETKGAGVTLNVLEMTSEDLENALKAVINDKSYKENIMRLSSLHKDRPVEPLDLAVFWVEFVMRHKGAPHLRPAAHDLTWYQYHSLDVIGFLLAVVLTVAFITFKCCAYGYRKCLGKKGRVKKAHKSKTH

Cytochrome P450 2C9 = Cytochrome P450 2C9 (Homo sapiens, UniProt P11712)
Chain of Cytochrome P450 2C9 (P11712 whole entry): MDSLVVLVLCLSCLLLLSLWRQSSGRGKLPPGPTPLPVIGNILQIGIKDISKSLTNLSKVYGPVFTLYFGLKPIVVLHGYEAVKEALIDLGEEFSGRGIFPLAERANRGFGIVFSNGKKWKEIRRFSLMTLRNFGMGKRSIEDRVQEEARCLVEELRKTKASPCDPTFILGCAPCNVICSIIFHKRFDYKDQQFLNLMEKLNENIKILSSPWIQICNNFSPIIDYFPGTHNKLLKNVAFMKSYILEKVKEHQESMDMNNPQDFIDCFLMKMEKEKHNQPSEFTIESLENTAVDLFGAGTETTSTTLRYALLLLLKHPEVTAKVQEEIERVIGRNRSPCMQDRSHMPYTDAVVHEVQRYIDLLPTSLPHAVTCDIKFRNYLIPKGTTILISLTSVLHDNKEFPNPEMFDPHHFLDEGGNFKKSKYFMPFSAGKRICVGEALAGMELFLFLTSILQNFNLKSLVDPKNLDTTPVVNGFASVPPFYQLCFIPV
Description: Drug metabolism assessed as CYP2C9 (unknown origin)-mediated metabolite formation

Cytochrome P450 3A4 = Cytochrome P450 3A4 (Homo sapiens, UniProt P08684)
Chain of Cytochrome P450 3A4 (P08684 whole entry): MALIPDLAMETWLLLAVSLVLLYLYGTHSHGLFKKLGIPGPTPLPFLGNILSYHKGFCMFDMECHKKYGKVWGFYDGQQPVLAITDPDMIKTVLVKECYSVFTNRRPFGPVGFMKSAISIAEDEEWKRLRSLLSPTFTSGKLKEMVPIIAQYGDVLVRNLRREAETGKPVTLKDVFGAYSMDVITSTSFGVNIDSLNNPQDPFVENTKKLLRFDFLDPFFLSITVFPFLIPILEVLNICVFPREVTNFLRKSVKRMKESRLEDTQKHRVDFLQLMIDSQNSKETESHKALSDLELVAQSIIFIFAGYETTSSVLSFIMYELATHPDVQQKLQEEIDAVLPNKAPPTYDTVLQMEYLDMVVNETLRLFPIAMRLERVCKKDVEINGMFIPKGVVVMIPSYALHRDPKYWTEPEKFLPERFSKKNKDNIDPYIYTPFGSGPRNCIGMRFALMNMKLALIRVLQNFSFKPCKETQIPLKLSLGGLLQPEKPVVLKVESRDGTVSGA
Description: Drug metabolism assessed as CYP3A4 (unknown origin)-mediated metabolite formation

[5] = biological target: T5, UDP-glucuronosyltransferase 1A6 (Homo sapiens, UniProt P19224); assay: Drug metabolism assessed as UGT1A6 (unknown origin)-mediated metabolite formation; assay type: ADME
T5 sequence (P19224 whole entry): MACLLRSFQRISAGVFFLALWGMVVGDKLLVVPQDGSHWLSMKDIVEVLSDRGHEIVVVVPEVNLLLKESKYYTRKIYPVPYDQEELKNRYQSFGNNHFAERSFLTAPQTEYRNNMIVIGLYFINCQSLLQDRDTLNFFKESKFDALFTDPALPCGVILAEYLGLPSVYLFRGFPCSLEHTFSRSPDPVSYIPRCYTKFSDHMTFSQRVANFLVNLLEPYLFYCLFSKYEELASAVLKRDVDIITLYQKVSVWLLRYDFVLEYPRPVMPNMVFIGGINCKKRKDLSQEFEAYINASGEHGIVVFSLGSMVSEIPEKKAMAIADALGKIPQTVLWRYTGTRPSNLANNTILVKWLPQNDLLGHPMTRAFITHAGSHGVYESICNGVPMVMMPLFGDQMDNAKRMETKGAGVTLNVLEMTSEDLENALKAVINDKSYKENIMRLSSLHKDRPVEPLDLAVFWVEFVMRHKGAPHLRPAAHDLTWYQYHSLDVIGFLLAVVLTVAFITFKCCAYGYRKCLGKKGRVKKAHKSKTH

Mus musculus = assay: Anti-inflammatory activity in Swiss mouse assessed as inhibition of LPS-induced pleural accumulation in neutrophils at 1 to 100 ng/kg, ip pretreated for 1 hr followed by LPS stimulation and measured after 24 hrs by May-Grunwald-Giemsa staining-based Neubauer chamber based optical microscopy; assay type: functional, organism-based

| Drug metabolism [1] | Drug metabolism [2] | Drug metabolism [3] | Drug metabolism [4] | Drug metabolism (Cytochrome P450 2C9) | Drug metabolism (Cytochrome P450 3A4) | Drug metabolism [5] | Structure (SMILES) | Activity (Mus musculus) |
| --- | --- | --- | --- | --- | --- | --- | --- | --- |
| Metabolite_Notdetected | Metabolite_Detected | Metabolite_Notdetected | Metabolite_Notdetected | Metabolite_Detected | Metabolite_Notdetected | Metabolite_Notdetected | O=C(O)Cc1ccccc1Nc1c(Cl)cccc1Cl [DICLOFENAC] | – |
| Metabolite_Notdetected | Metabolite_Notdetected | Metabolite_Detected | Metabolite_Notdetected | Metabolite_Notdetected | Metabolite_Notdetected | Metabolite_Notdetected | CCOCc1cn(-c2ccc(Cl)cc2)nn1 | inactive |
| Metabolite_Notdetected | Metabolite_Detected | Metabolite_Notdetected | Metabolite_Notdetected | Metabolite_Detected | Metabolite_Notdetected | Metabolite_Detected | CC(C)Cc1ccc(C(C)C(=O)O)cc1 (configuration not stated) [IBUPROFEN] | – |
| Metabolite_Notdetected | Metabolite_Detected | Metabolite_Notdetected | Metabolite_Notdetected | – | – | Metabolite_Detected | COc1ccc2cc([C@H](C)C(=O)O)ccc2c1 [NAPROXEN] | – |
